In PubChem BioAssay (NCI):
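Grown in 96-well plates, cells were treated for 48 hours with each compound at five concentrations. Insufficient inhibition: endpoint recorded as highest concentration tested. Here, GI50 denotes the concentration required for 50% inhibition of growth. TGI: concentration producing complete growth inhibition.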

Key:
Test in all cases: DTP human tumour cell line panel, 48 h
A549 NSCLC = system: A549 NSCLC
HOP-92 NSCLC = system: HOP-92 NSCLC
IGROV1 ovarian = system: IGROV1 ovarian
LOX IMVI melanoma = system: LOX IMVI melanoma
MALME-3M melanoma = system: MALME-3M melanoma
NCI-H460 lung = system: NCI-H460 lung
NCI-H522 lung = system: NCI-H522 lung
OVCAR-5 ovarian = system: OVCAR-5 ovarian
SK-MEL-5 melanoma = system: SK-MEL-5 melanoma
SW-620 colon = system: SW-620 colon

Row | Compound | TGI (A549 NSCLC) | TGI (HOP-92 NSCLC) | TGI (IGROV1 ovarian) | TGI (LOX IMVI melanoma) | TGI (MALME-3M melanoma) | TGI (NCI-H460 lung) | TGI (NCI-H522 lung) | TGI (OVCAR-5 ovarian) | TGI (SK-MEL-5 melanoma) | TGI (SW-620 colon) | GI50 (A549 NSCLC) | GI50 (HOP-92 NSCLC) | GI50 (IGROV1 ovarian) | GI50 (LOX IMVI melanoma) | GI50 (MALME-3M melanoma) | GI50 (NCI-H460 lung) | GI50 (NCI-H522 lung) | GI50 (OVCAR-5 ovarian) | GI50 (SK-MEL-5 melanoma) | GI50 (SW-620 colon)
1 | O=C(O)/C=C/c1cnc[nH]1 | > 500 µM | > 500 µM | > 500 µM | > 500 µM | > 500 µM | > 500 µM | > 500 µM | > 500 µM | > 232 µM | > 500 µM |  |  |  |  |  |  |  |  |  | 
2 | COc1ccc2c(c1)O[C@H]1c3ccc(O)cc3OC[C@@H]21 | > 100 µM |  | 71.6 µM | 32.2 µM | > 100 µM | > 100 µM | 79.4 µM | > 100 µM | 32 µM | > 100 µM |  |  |  |  |  |  |  |  |  | 
3 | COc1cccc(C2C(C(=O)O)=C(CO)Oc3cc4c(cc32)OCO4)c1 (stereo not drawn) |  | > 100 µM | > 100 µM | > 100 µM | > 100 µM | > 100 µM | > 100 µM |  | > 100 µM | > 100 µM |  |  |  |  |  |  |  |  |  | 
4 | CCSc1nc(N2CCCCC2)c2cn[nH]c2n1 | > 100 µM | > 100 µM | > 100 µM | > 100 µM | 97.5 µM | 76.5 µM | > 100 µM | > 100 µM | 32.8 µM | > 100 µM | 50.5 µM | 18.1 µM | 47 µM | 55.2 µM | 37.1 µM | 20.4 µM | 30.7 µM | 88.7 µM | 16.6 µM | 40.1 µM
5 | CCOC(=O)C1(C(=O)OCC)CSC1 | > 100 µM | > 100 µM |  | > 100 µM |  | 1.74 µM | > 100 µM |  | > 100 µM | > 100 µM |  |  |  |  |  |  |  |  |  | 
6 | CC(=O)NC(CCCCNC(=O)OC(C)(C)C)C(=O)O (stereo not drawn) | > 100 µM |  | > 100 µM | > 100 µM | > 100 µM | > 100 µM | > 100 µM | > 100 µM | > 100 µM | > 100 µM |  |  |  |  |  |  |  |  |  | 
7 | COC(=O)C1=COC2OC3/C(=C\c4ccc(O)c(OC)c4)C(=O)OC34C=CC1C24 (stereo not drawn) | 32.4 µM | 44.6 µM | 40.3 µM |  | 31 µM | 31.7 µM | 28.8 µM | 32.6 µM | > 100 µM | 35.9 µM |  |  |  |  |  |  |  |  |  | 
8 | O=C(N1CCC(CN=c2cc3n(-c4ccc(Cl)cc4)c4ccccc4nc-3cc2Nc2ccc(Cl)cc2)CC1)N1CC1 | 11.7 µM | 37 µM |  |  |  |  | 2.73 µM | 3.39 µM | 2.81 µM | 2.05 µM | 0.71 µM | 13.5 µM |  |  |  |  | 1.32 µM | 1.85 µM | 1.49 µM | 0.709 µM
9 | CCOc1ccc(N=Nc2ccc3oc(=O)c(/C(C)=N\NC(=O)CC(=O)Nc4ccc(Cl)cc4)cc3c2)cc1 | 43.3 µM | 54.9 µM | 45.4 µM | 26.5 µM | 30.3 µM |  | 50.1 µM | > 100 µM | 38.7 µM | 38.8 µM |  |  |  |  |  |  |  |  |  | 
